Laboratory results as given in ChEMBL document CHEMBL4831516, “Development of Membrane-Active Honokiol/Magnolol Amphiphiles as Potent Antibacterial Agents against Methicillin-Resistant Staphylococcus aureus (MRSA)” (J Med Chem, 2021).

Tested on: Staphylococcus aureus
Assay: Antibacterial activity against methicillin-resistant Staphylococcus aureus clinical isolate M-11 assessed as inhibition of visible growth incubated for 16 to 18 hrs by CLSI method
Type: functional
Conditions: time 16-18 hrs, read-out: MIC100

Structure (SMILES) | MIC [µg/mL]
C=CCc1ccc(OCCCC[N+](C)(C)CC(=O)NCCCCC)c(-c2ccc(OCCCC[N+](C)(C)CC(=O)NCCCCC)c(CC=C)c2)c1.[Br-].[Br-] | 1
C=CCc1ccc(OCCCC[N+](C)(C)CC(=O)NCCCC)c(-c2ccc(OCCCC[N+](C)(C)CC(=O)NCCCC)c(CC=C)c2)c1.[Br-].[Br-] | 2

Tested on: Staphylococcus aureus
Assay: Antibacterial activity against methicillin-resistant Staphylococcus aureus clinical isolate M-20 assessed as inhibition of visible growth incubated for 16 to 18 hrs by CLSI method
Type: functional
Conditions: time 16-18 hrs, read-out: MIC100

Structure (SMILES) | MIC [µg/mL]
C=CCc1ccc(OCCCC[N+](C)(C)CC(=O)NCCCCC)c(-c2ccc(OCCCC[N+](C)(C)CC(=O)NCCCCC)c(CC=C)c2)c1.[Br-].[Br-] | 2
C=CCc1ccc(OCCCC[N+](C)(C)CC(=O)NCCCC)c(-c2ccc(OCCCC[N+](C)(C)CC(=O)NCCCC)c(CC=C)c2)c1.[Br-].[Br-] | 2

Tested on: Staphylococcus aureus
Assay: Antibacterial activity against methicillin-resistant Staphylococcus aureus clinical isolate M-14 assessed as inhibition of visible growth incubated for 16 to 18 hrs by CLSI method
Type: functional
Conditions: time 16-18 hrs, read-out: MIC100

Structure (SMILES) | MIC [µg/mL]
C=CCc1ccc(OCCCC[N+](C)(C)CC(=O)NCCCCC)c(-c2ccc(OCCCC[N+](C)(C)CC(=O)NCCCCC)c(CC=C)c2)c1.[Br-].[Br-] | 2
C=CCc1ccc(OCCCC[N+](C)(C)CC(=O)NCCCC)c(-c2ccc(OCCCC[N+](C)(C)CC(=O)NCCCC)c(CC=C)c2)c1.[Br-].[Br-] | 2

Tested on: not listed separately
Assay: Hemolytic activity in sheep RBC assessed as hemolysis incubated for 1 hr
Type: ADME, cell-based, Ovis aries, Erythrocyte
Conditions: sheep red blood cells (erythrocytes)

Structure (SMILES) | HC50 at 1 h [µg/mL]
C=CCc1ccc(OCCCC[N+](C)(C)CC(=O)NCCCCC)c(-c2ccc(OCCCC[N+](C)(C)CC(=O)NCCCCC)c(CC=C)c2)c1.[Br-].[Br-] | 448
C=CCc1ccc(OCCCC[N+](C)(C)CC(=O)NCCCC)c(-c2ccc(OCCCC[N+](C)(C)CC(=O)NCCCC)c(CC=C)c2)c1.[Br-].[Br-] | 531

Tested on: Salmonella enterica
Assay: Antibacterial activity against Salmonella enterica 8389 assessed as inhibition of visible growth incubated for 16 to 18 hrs by CLSI method
Type: functional
Conditions: time 16-18 hrs, read-out: MIC100

Structure (SMILES) | MIC [µg/mL]
C=CCc1ccc(OCCCC[N+](C)(C)CC(=O)NCCCCC)c(-c2ccc(OCCCC[N+](C)(C)CC(=O)NCCCCC)c(CC=C)c2)c1.[Br-].[Br-] | 8
C=CCc1ccc(OCCCC[N+](C)(C)CC(=O)NCCCC)c(-c2ccc(OCCCC[N+](C)(C)CC(=O)NCCCC)c(CC=C)c2)c1.[Br-].[Br-] | 16

Tested on: Stenotrophomonas maltophilia
Assay: Antibacterial activity against Stenotrophomonas maltophilia assessed as inhibition of visible growth incubated for 16 to 18 hrs by CLSI method
Type: functional
Conditions: time 16-18 hrs, read-out: MIC100

Structure (SMILES) | MIC [µg/mL]
C=CCc1ccc(OCCCC[N+](C)(C)CC(=O)NCCCCC)c(-c2ccc(OCCCC[N+](C)(C)CC(=O)NCCCCC)c(CC=C)c2)c1.[Br-].[Br-] | 16
C=CCc1ccc(OCCCC[N+](C)(C)CC(=O)NCCCC)c(-c2ccc(OCCCC[N+](C)(C)CC(=O)NCCCC)c(CC=C)c2)c1.[Br-].[Br-] | 8

Tested on: Staphylococcus aureus
Assay: Antibacterial activity against methicillin-resistant Staphylococcus aureus clinical isolate M-15 assessed as inhibition of visible growth incubated for 16 to 18 hrs by CLSI method
Type: functional
Conditions: time 16-18 hrs, read-out: MIC100

Structure (SMILES) | MIC [µg/mL]
C=CCc1ccc(OCCCC[N+](C)(C)CC(=O)NCCCCC)c(-c2ccc(OCCCC[N+](C)(C)CC(=O)NCCCCC)c(CC=C)c2)c1.[Br-].[Br-] | 2
C=CCc1ccc(OCCCC[N+](C)(C)CC(=O)NCCCC)c(-c2ccc(OCCCC[N+](C)(C)CC(=O)NCCCC)c(CC=C)c2)c1.[Br-].[Br-] | 4

Tested on: not listed separately
Assay: Selectivity index, HC50 for hemolytic activity in sheep RBC to MIC for antibacterial activity against Staphylococcus aureus ATCC29213
Type: toxicity
Conditions: sheep red blood cells (erythrocytes), read-out: Selectivity Index

Structure (SMILES) | selectivity ratio
C=CCc1ccc(OCCCC[N+](C)(C)CC(=O)NCCCCC)c(-c2ccc(OCCCC[N+](C)(C)CC(=O)NCCCCC)c(CC=C)c2)c1.[Br-].[Br-] | 112
C=CCc1ccc(OCCCC[N+](C)(C)CC(=O)NCCCC)c(-c2ccc(OCCCC[N+](C)(C)CC(=O)NCCCC)c(CC=C)c2)c1.[Br-].[Br-] | 266

Tested on: Staphylococcus aureus
Assay: Antibacterial activity against Staphylococcus aureus ATCC29213 assessed as inhibition of visible growth incubated for 16 to 18 hrs by CLSI method
Type: functional
Conditions: time 16-18 hrs, read-out: MIC100

Structure (SMILES) | MIC [µg/mL]
C=CCc1ccc(OCCCC[N+](C)(C)CC(=O)NCCCCC)c(-c2ccc(OCCCC[N+](C)(C)CC(=O)NCCCCC)c(CC=C)c2)c1.[Br-].[Br-] | 4
C=CCc1ccc(OCCCC[N+](C)(C)CC(=O)NCCCC)c(-c2ccc(OCCCC[N+](C)(C)CC(=O)NCCCC)c(CC=C)c2)c1.[Br-].[Br-] | 2

Tested on: Micrococcus luteus
Assay: Antibacterial activity against Micrococcus luteus assessed as inhibition of visible growth incubated for 16 to 18 hrs by CLSI method
Type: functional
Conditions: time 16-18 hrs, read-out: MIC100

Structure (SMILES) | MIC [µg/mL]
C=CCc1ccc(OCCCC[N+](C)(C)CC(=O)NCCCCC)c(-c2ccc(OCCCC[N+](C)(C)CC(=O)NCCCCC)c(CC=C)c2)c1.[Br-].[Br-] | 2
C=CCc1ccc(OCCCC[N+](C)(C)CC(=O)NCCCC)c(-c2ccc(OCCCC[N+](C)(C)CC(=O)NCCCC)c(CC=C)c2)c1.[Br-].[Br-] | 4

Tested on: Staphylococcus aureus
Assay: Antibacterial activity against methicillin-resistant Staphylococcus aureus clinical isolate M-16 assessed as inhibition of visible growth incubated for 16 to 18 hrs by CLSI method
Type: functional
Conditions: time 16-18 hrs, read-out: MIC100

Structure (SMILES) | MIC [µg/mL]
C=CCc1ccc(OCCCC[N+](C)(C)CC(=O)NCCCCC)c(-c2ccc(OCCCC[N+](C)(C)CC(=O)NCCCCC)c(CC=C)c2)c1.[Br-].[Br-] | 2
C=CCc1ccc(OCCCC[N+](C)(C)CC(=O)NCCCC)c(-c2ccc(OCCCC[N+](C)(C)CC(=O)NCCCC)c(CC=C)c2)c1.[Br-].[Br-] | 4

Tested on: Staphylococcus aureus
Assay: Antibacterial activity against methicillin-resistant Staphylococcus aureus clinical isolate M-18 assessed as inhibition of visible growth incubated for 16 to 18 hrs by CLSI method
Type: functional
Conditions: time 16-18 hrs, read-out: MIC100

Structure (SMILES) | MIC [µg/mL]
C=CCc1ccc(OCCCC[N+](C)(C)CC(=O)NCCCCC)c(-c2ccc(OCCCC[N+](C)(C)CC(=O)NCCCCC)c(CC=C)c2)c1.[Br-].[Br-] | 2
C=CCc1ccc(OCCCC[N+](C)(C)CC(=O)NCCCC)c(-c2ccc(OCCCC[N+](C)(C)CC(=O)NCCCC)c(CC=C)c2)c1.[Br-].[Br-] | 4

Tested on: Bacillus subtilis
Assay: Antibacterial activity against Bacillus subtilis assessed as inhibition of visible growth incubated for 16 to 18 hrs by CLSI method
Type: functional
Conditions: time 16-18 hrs, read-out: MIC100

Structure (SMILES) | MIC [µg/mL]
C=CCc1ccc(OCCCC[N+](C)(C)CC(=O)NCCCCC)c(-c2ccc(OCCCC[N+](C)(C)CC(=O)NCCCCC)c(CC=C)c2)c1.[Br-].[Br-] | 2
C=CCc1ccc(OCCCC[N+](C)(C)CC(=O)NCCCC)c(-c2ccc(OCCCC[N+](C)(C)CC(=O)NCCCC)c(CC=C)c2)c1.[Br-].[Br-] | 2

Tested on: Staphylococcus aureus
Assay: Antibacterial activity against methicillin-resistant Staphylococcus aureus clinical isolate M-13 assessed as inhibition of visible growth incubated for 16 to 18 hrs by CLSI method
Type: functional
Conditions: time 16-18 hrs, read-out: MIC100

Structure (SMILES) | MIC [µg/mL]
C=CCc1ccc(OCCCC[N+](C)(C)CC(=O)NCCCCC)c(-c2ccc(OCCCC[N+](C)(C)CC(=O)NCCCCC)c(CC=C)c2)c1.[Br-].[Br-] | 2
C=CCc1ccc(OCCCC[N+](C)(C)CC(=O)NCCCC)c(-c2ccc(OCCCC[N+](C)(C)CC(=O)NCCCC)c(CC=C)c2)c1.[Br-].[Br-] | 2

Tested on: Enterococcus faecalis
Assay: Antibacterial activity against Enterococcus faecalis ATCC29212 assessed as inhibition of visible growth incubated for 16 to 18 hrs by CLSI method
Type: functional
Conditions: time 16-18 hrs, read-out: MIC100

Structure (SMILES) | MIC [µg/mL]
C=CCc1ccc(OCCCC[N+](C)(C)CC(=O)NCCCCC)c(-c2ccc(OCCCC[N+](C)(C)CC(=O)NCCCCC)c(CC=C)c2)c1.[Br-].[Br-] | 2
C=CCc1ccc(OCCCC[N+](C)(C)CC(=O)NCCCC)c(-c2ccc(OCCCC[N+](C)(C)CC(=O)NCCCC)c(CC=C)c2)c1.[Br-].[Br-] | 1

Tested on: Staphylococcus aureus
Assay: Antibacterial activity against methicillin-resistant Staphylococcus aureus clinical isolate M-19 assessed as inhibition of visible growth incubated for 16 to 18 hrs by CLSI method
Type: functional
Conditions: time 16-18 hrs, read-out: MIC100

Structure (SMILES) | MIC [µg/mL]
C=CCc1ccc(OCCCC[N+](C)(C)CC(=O)NCCCCC)c(-c2ccc(OCCCC[N+](C)(C)CC(=O)NCCCCC)c(CC=C)c2)c1.[Br-].[Br-] | 2
C=CCc1ccc(OCCCC[N+](C)(C)CC(=O)NCCCC)c(-c2ccc(OCCCC[N+](C)(C)CC(=O)NCCCC)c(CC=C)c2)c1.[Br-].[Br-] | 4

Tested on: Staphylococcus aureus
Assay: Antibacterial activity against methicillin-resistant Staphylococcus aureus clinical isolate M-17 assessed as inhibition of visible growth incubated for 16 to 18 hrs by CLSI method
Type: functional
Conditions: time 16-18 hrs, read-out: MIC100

Structure (SMILES) | MIC [µg/mL]
C=CCc1ccc(OCCCC[N+](C)(C)CC(=O)NCCCCC)c(-c2ccc(OCCCC[N+](C)(C)CC(=O)NCCCCC)c(CC=C)c2)c1.[Br-].[Br-] | 2
C=CCc1ccc(OCCCC[N+](C)(C)CC(=O)NCCCC)c(-c2ccc(OCCCC[N+](C)(C)CC(=O)NCCCC)c(CC=C)c2)c1.[Br-].[Br-] | 4

Tested on: Escherichia coli
Assay: Antibacterial activity against Escherichia coli ATCC25922 assessed as inhibition of visible growth incubated for 16 to 18 hrs by CLSI method
Type: functional
Conditions: time 16-18 hrs, read-out: MIC100

Structure (SMILES) | MIC [µg/mL]
C=CCc1ccc(OCCCC[N+](C)(C)CC(=O)NCCCCC)c(-c2ccc(OCCCC[N+](C)(C)CC(=O)NCCCCC)c(CC=C)c2)c1.[Br-].[Br-] | 16
C=CCc1ccc(OCCCC[N+](C)(C)CC(=O)NCCCC)c(-c2ccc(OCCCC[N+](C)(C)CC(=O)NCCCC)c(CC=C)c2)c1.[Br-].[Br-] | 8

Tested on: Staphylococcus aureus
Assay: Antibacterial activity against methicillin-resistant Staphylococcus aureus clinical isolate M-12 assessed as inhibition of visible growth incubated for 16 to 18 hrs by CLSI method
Type: functional
Conditions: time 16-18 hrs, read-out: MIC100

Structure (SMILES) | MIC [µg/mL]
C=CCc1ccc(OCCCC[N+](C)(C)CC(=O)NCCCCC)c(-c2ccc(OCCCC[N+](C)(C)CC(=O)NCCCCC)c(CC=C)c2)c1.[Br-].[Br-] | 2
C=CCc1ccc(OCCCC[N+](C)(C)CC(=O)NCCCC)c(-c2ccc(OCCCC[N+](C)(C)CC(=O)NCCCC)c(CC=C)c2)c1.[Br-].[Br-] | 2

Tested on: Salmonella enterica
Assay: Antibacterial activity against Salmonella enterica 349812 assessed as inhibition of visible growth incubated for 16 to 18 hrs by CLSI method
Type: functional
Conditions: time 16-18 hrs, read-out: MIC100

Structure (SMILES) | MIC [µg/mL]
C=CCc1ccc(OCCCC[N+](C)(C)CC(=O)NCCCCC)c(-c2ccc(OCCCC[N+](C)(C)CC(=O)NCCCCC)c(CC=C)c2)c1.[Br-].[Br-] | 8
C=CCc1ccc(OCCCC[N+](C)(C)CC(=O)NCCCC)c(-c2ccc(OCCCC[N+](C)(C)CC(=O)NCCCC)c(CC=C)c2)c1.[Br-].[Br-] | 8
